According to ChEMBL document CHEMBL1158971, “Aromatic Secondary Metabolites from the Sponge Tedania ignis” (J Nat Prod, 1991):

Assays:
[1] = Toxicity against brine shrimp assessed as mortality at 25 ppm after 24 hrs; assay type: organism-based; conditions: artemia, in vivo; read-out: Activity
[2] = Toxicity against brine shrimp assessed as mortality at 25 ppm after 6 hrs; assay type: organism-based; conditions: artemia, in vivo; read-out: Activity
[3] = Toxicity against brine shrimp assessed as mortality at 25 ppm after 4 hrs; assay type: organism-based; conditions: artemia, in vivo; read-out: Activity
[4] = Toxicity against brine shrimp assessed as mortality at 25 ppm after 8 hrs; assay type: organism-based; conditions: artemia, in vivo; read-out: Activity
Artemia = experiment: Toxicity against brine shrimp assessed as mortality at 25 ppm; assay type: organism-based; conditions: in vivo
Euphorbia esula = experiment: Phytotoxicity against Euphorbia esula assessed as necrotic lesions at 5 ug by nicked leaf assay; assay type: functional

SMILES	mortality at 24 h, 25 ppm [1]	mortality at 6 h, 25 ppm [2]	mortality at 4 h, 25 ppm [3]	mortality at 8 h, 25 ppm [4]	Activity (Artemia)	Activity (Euphorbia esula)
CC(=O)c1nccc2c1[nH]c1ccccc12	100%	21%	14%	43%	–	–
NC(=O)Cc1ccccc1	–	–	–	–	Not Active	–
Cc1cccc2c1[nH]c1ccccc12	–	100%	82%	–	–	–
CC(=O)/C=C/c1c[nH]c2ccccc12	39%	0%	0%	8%	–	–
CC(=O)/C=C/Cc1c[nH]c2ccccc12	91%	0%	0%	27%	–	2 mm
CC(=O)/C=C/c1ccc(C)c(C)c1C	100%	50%	0%	90%	–	–
CC(=O)/C=C/C(C)=C(\C)c1c[nH]c2ccccc12	70%	20%	20%	20%	–	–
O=C(CO)c1c[nH]c2ccccc12	–	–	–	–	Not Active	–
